{"source": "patent US20070092939A1", "about": "“HUMAN IMMUNODEFICIENCY VIRUS ENTRY INHIBITOR ASSAY” (priority 2003, published 2007)", "tested_on": "co-cultivation-induced fusion between HL2/3 and HeLa-CD4-LTR-β-gal cells", "assay": "Cell fusion assay by co-cultivation of HL2/3 and HeLa-CD4-LTR-β-gal cells, β-galactosidase chemiluminescence readout", "assay_type": "cell-based", "conditions": "for Response Chemiluminescence / Response Inhibition (%): Table 1; for Chemiluminescence / Inhibition: Table 2 specificity test", "protocol": "Depending on the culture vessel (T75 or T175), 0.5−2.0×10^6 HL2/3 or HeLa-CD4-LTR-β-gal cells were seeded into their respective Propagation Medium (for HL2/3, DMEM containing 10% FBS and 0.5 mg/ml G418; for HeLa-CD4-LTR-β-gal, DMEM containing 10% FBS, 0.2 mg/ml G418, and 0.1 mg/ml hygromycin B). Culture at 37° C. with 95% air/5% CO2 until the cultures reach 60% confluency, but can not exceed 95% confluency.\nRemove medium by aspiration with 2-ml of glass pipette. Add 5 ml (for T75 flask) or 10 ml (for T175 flask) of the cell dissociation buffer (CDB). Incubate at room temperature for at least 20 minutes. While waiting, prepare potential entry inhibitor (e.g. TNX-355) with cold Assay Medium (DMEM supplemented with 10% FBS) for treatment. Harvest cells in a 15-ml (for T75) or 50-ml (for T175) conical centrifuge tube by repeated pipetting. Determine cell density and viability in 100 μl of samples with Trypan Blue Exclusion method. Centrifuge at 1000 rpm (or 201×g) for 5 minutes. Discard supernatant and resuspend cells in pre-warmed Assay Medium at a cell density of 1×10^6 cells/ml (for HeLa-CD4-LTR-β-gal cells) or 2×10^6 cells/ml (for HL2/3 cells).\nFurther dilute HeLa-CD4-LTR-β-gal cells to 0.25×10^6 cells/ml with pre-warmed Assay Medium, and pipette 90 μl to each well of a 96-well clear-bottom white-wall plate using a 12-channel pipet. Add 20 μl of drug or medium to each well as needed. Further dilute HL2/3 cells to 0.5×10^6 cells/ml with pre-warmed Assay Medium, and pipette 90 μl to each well of a 96-well clear-bottom white-wall plate using a 12-channel pipet. Total cells in each well is 6.75×10^4 cells at a ratio of 2:1 (HL2/3 to HeLa-CD4-LTR-β-gal cells). Culture cells at 37° C. with 95% air/5% CO2 for about 24 hours.\nRemove the medium row by row, immediately followed by addition of 50 μl/well of Lysis Solution (Roche Lysis Buffer containing protease inhibitors). Incubate for 60 minutes at 15-25° C. with mild shaking (200-300 rpm). While waiting, dilute 1 volume of concentrated substrate with 99 volumes of Reaction Buffer to make working substrate solution.\nAdd 100 μl of the substrate reagent to each well row by row using 12-channel pipette. Incubate for 90 minutes at room temperature with mild shaking (200-300 rpm). While waiting, bring proper volume of Accelerator II solution to room temperature. Add 50 μl of the Accelerator II to each well row by row using 12-channel pipette. Measure light emission with a microplate luminometer. The chemiluminescence readout is reported as light units per second.\nThe inhibition of HIV entry inhibitors, including TNX-355, T20, SIM.4, and sCD4, was tested on the co-cultivation-induced fusion between the two cell lines (HL2/3 to HeLa-CD4-LTR-β-gal cells). TNX-355 is a humanized anti-CD4 domain 2 antibody, T20 a synthetic oligopeptide mimicking the […] HR-2 region, SIM.4 a monoclonal anti-CD4 domain 1 antibody, and sCD4 is a soluble extracellular portion of CD4 molecule. Multiple levels of each reagent were tested following the procedures described in the Materials and Methods.\nAssay specificity was addressed by comparing the inhibitory activity of TNX-355 to those of two structurally similar but functionally irrelevant antibodies. These antibodies are TNX-224 (a humanized antibody IgG4 which differs in complementary determining regions (CDR) but share a majority of sequence homology to TNX-355) and TNX-901 (a humanized antibody IgG1).", "data": [{"molecule": "TNX-355: humanized anti-CD4 domain 2 antibody, IgG4", "values": [{"measurement": "Response Chemiluminescence", "setting": "reagent 0.1 ng/ml", "result": "39185 ± 1260.79", "unit": "light units per second"}, {"measurement": "Response Inhibition (%)", "setting": "reagent 0.1 ng/ml", "result": 23.2, "unit": "%"}, {"measurement": "Response Chemiluminescence", "setting": "reagent 10 ng/ml", "result": "34525 ± 2281.39", "unit": "light units per second"}, {"measurement": "Response Inhibition (%)", "setting": "reagent 10 ng/ml", "result": 33.7, "unit": "%"}, {"measurement": "Response Chemiluminescence", "setting": "reagent 25 ng/ml", "result": "29152 ± 2492.87", "unit": "light units per second"}, {"measurement": "Response Inhibition (%)", "setting": "reagent 25 ng/ml", "result": 45.8, "unit": "%"}, {"measurement": "Response Chemiluminescence", "setting": "reagent 50 ng/ml", "result": "23993 ± 650.74", "unit": "light units per second"}, {"measurement": "Response Inhibition (%)", "setting": "reagent 50 ng/ml", "result": 57.3, "unit": "%"}, {"measurement": "Response Chemiluminescence", "setting": "reagent 100 ng/ml", "result": "18724 ± 989.73", "unit": "light units per second"}, {"measurement": "Response Inhibition (%)", "setting": "reagent 100 ng/ml", "result": 69.2, "unit": "%"}, {"measurement": "Response Chemiluminescence", "setting": "reagent 200 ng/ml", "result": "12312 ± 1516.60", "unit": "light units per second"}, {"measurement": "Response Inhibition (%)", "setting": "reagent 200 ng/ml", "result": 83.5, "unit": "%"}, {"measurement": "Response Chemiluminescence", "setting": "reagent 1000 ng/ml", "result": "6896 ± 383.09", "unit": "light units per second"}, {"measurement": "Response Inhibition (%)", "setting": "reagent 1000 ng/ml", "result": 95.7, "unit": "%"}, {"measurement": "Response Inhibition (%)", "setting": "reagent 10000 ng/ml", "result": 100.0, "unit": "%"}, {"measurement": "Response Chemiluminescence", "setting": "reagent 10000 ng/ml, about 24 hours co-cultivation", "result": "4978 ± 669.32", "unit": "light units per second"}, {"measurement": "Chemiluminescence", "setting": "antibody amount 0.025 μg/ml", "result": "34121 ± 714.43", "unit": "light units per second"}, {"measurement": "Inhibition", "setting": "antibody amount 0.025 μg/ml", "result": 20, "unit": "%"}, {"measurement": "Chemiluminescence", "setting": "antibody amount 1.0 μg/ml", "result": "5135 ± 432.41", "unit": "light units per second"}, {"measurement": "Inhibition", "setting": "antibody amount 1.0 μg/ml", "result": 88, "unit": "%"}]}, {"molecule": "TNX-901: humanized antibody IgG1; functionally irrelevant control (antibody, chains of the INN, looked up, V domains shown) VH: QVQLVQSGAEVKKPGASVKVSCKASGYTFSMYWLEWVRQAPGHGLEWVGEISPGTFTTNYNEKFKARATFTADTSTNTAYMELSSLRSEDTAVYYCARFSHFSGSNYDYFDYWGQGTLVTVSS VL: DILLTQSPGTLSLSPGERATLSCRASQSIGTNIHWYQQKPGQAPRLLIKYASESISGIPSRFSGSGSGTDFTLTISRLEPEDFAMYYCQQSDSWPTTFGQGTKVEIK", "values": [{"measurement": "Chemiluminescence", "setting": "antibody amount 0.025 μg/ml", "result": "42629 ± 664.10", "unit": "light units per second"}, {"measurement": "Inhibition", "setting": "antibody amount 0.025 μg/ml", "result": 0, "unit": "%"}, {"measurement": "Chemiluminescence", "setting": "antibody amount 10 μg/ml", "result": "42847 ± 1429.78", "unit": "light units per second"}, {"measurement": "Inhibition", "setting": "antibody amount 10 μg/ml", "result": 0, "unit": "%"}]}]}
